Several values for one entry are separate records, joined by “and”; a condition that tells them apart may be missing. Equal entries are not always repeated.
Tested on: sulfotransferase in hair follicles
Assay: In-vitro evaluation of sulfotransferase up-regulation in plucked hair follicles
Format: cell-based, human
Conditions: for OD 405 (1)-(3), individual replicates / OD 405 Average: 24 h incubation, patient AB-001; for induction of sulfotransferase activity in plucked hair follicles (conclusion): 24 h
Description: The following experiment was conducted to assess the up-regulation of sulfotransferase in hair follicles by candidate compounds know to interact with human nuclear receptors (e.g., PXR and CAR).
Method: For each compound tested, 24 hairs were plucked from a human subject. […] 1 uL of DMSO with no compound was added to control samples. Hairs were allowed to incubate with the candidate compounds for 24 h at room temperature. All samples were run in triplicate, i.e., the data describe in the result section is an average of three samples tested.
After 24 h of incubation hairs were removed from the sample media and washed briefly with clean water. Hairs were trimmed to a length of ˜1 cm and immersed, bulb first, in 100 μL of an assay solution containing 50 mM phosphate buffer (pH8), 5 mM potassium p-nitrophenyl sulfate, 20 μM adenosine 3′,5′-diphosphate, 100 μM minoxidil and 5 mM MgCl2. Hairs were allowed to react with the solution for 24 hours at room temperature. After incubation, hairs were removed and the optical absorbance of the solution at 405 nm was determined with a spectrophotometer using a single scan and 1 cm path length.

[1] = 5 uM, DMSO control average 0.120 (Vitamin K2 run), 0.195 (Hyperforin run)
[2] = 10 uM, DMSO control average 0.120 (Vitamin K2 run), 0.241 (Genistein run)
[3] = 20 uM, DMSO control average 0.120
[4] = 0.2 uM, DMSO control average 0.195
[5] = 1 uM, DMSO control average 0.195
[6] = 25 uM, DMSO control average 0.241
[7] = 50 uM, DMSO control average 0.241

| OD 405 (1)-(3), individual replicates [3] | OD 405 Average [3] | induction of sulfotransferase activity in plucked hair follicles (conclusion) | Structure (SMILES) | OD 405 (1)-(3), individual replicates [1] | OD 405 Average [1] | OD 405 (1)-(3), individual replicates [2] | OD 405 Average [2] | OD 405 (1)-(3), individual replicates [4] | OD 405 Average [4] | OD 405 (1)-(3), individual replicates [5] | OD 405 Average [5] | OD 405 (1)-(3), individual replicates [6] | OD 405 Average [6] | OD 405 (1)-(3), individual replicates [7] | OD 405 Average [7] |
| --- | --- | --- | --- | --- | --- | --- | --- | --- | --- | --- | --- | --- | --- | --- | --- |
| 0.145 and 0.208 and 0.144 | 0.166 | induced sulfotransferase activity | CC(C)=CCC/C(C)=C/CC/C(C)=C/CC/C(C)=C/CC1=C(C)C(=O)c2ccccc2C1=O [Vitamin K2, vitamin K2] | 0.176 and 0.211 and 0.173 | 0.187 | 0.339 and 0.138 and 0.180 | 0.219 | – | – | – | – | – | – | – | – |
| – | – | induced sulfotransferase activity | O=c1c(-c2ccc(O)cc2)coc2cc(O)cc(O)c12 [Genistein, genistein] | – | – | 0.186 and 0.235 and 0.134 | 0.185 | – | – | – | – | 0.179 and 0.144 and 0.085 | 0.136 | 0.122 and 0.080 and 0.190 | 0.131 |

| Structure (SMILES) | OD 405 (1)-(3), individual replicates [3] | OD 405 Average [3] | induction of sulfotransferase activity in plucked hair follicles (conclusion) | OD 405 (1)-(3), individual replicates [1] | OD 405 Average [1] | OD 405 (1)-(3), individual replicates [2] | OD 405 Average [2] | OD 405 (1)-(3), individual replicates [4] | OD 405 Average [4] | OD 405 (1)-(3), individual replicates [5] | OD 405 Average [5] | OD 405 (1)-(3), individual replicates [6] | OD 405 Average [6] | OD 405 (1)-(3), individual replicates [7] | OD 405 Average [7] |
| --- | --- | --- | --- | --- | --- | --- | --- | --- | --- | --- | --- | --- | --- | --- | --- |
| CC(C)=CCC[C@]1(C)[C@@H](CC=C(C)C)C[C@@]2(CC=C(C)C)C(=O)[C@]1(C(=O)C(C)C)C(=O)C(CC=C(C)C)=C2O [Hyperforin, hyperforin] | – | – | induced sulfotransferase activity | 0.523 and 0.506 and 0.489 | 0.506 | – | – | 0.411 and 0.360 and 0.298 | 0.356 | 0.475 and 0.402 and 0.369 | 0.415 | – | – | – | – |

Reference: patent publication US12533309B2, “Minoxidil adjuvant therapies” (JUPITER WELLNESS, INC., priority 2018, dated 2026)
